Test results from the supplement of paper PMC10307832.

What was measured:
Assay in all cases: relative viability (nuclei count vs DMSO), 5 days (fraction); higher = more cells survive
Shikonin + OSI-027 = compound: CC(C)=CC[C@@H](O)C1=CC(=O)c2c(O)ccc(O)c2C1=O [Shikonin] + COc1cccc2cc(-c3nc([C@H]4CC[C@H](C(=O)O)CC4)n4ncnc(N)c34)[nH]c12 [OSI-027] (partner 0.5 µM)
Procedure, shortened: (§1)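 Lung cancer cell lines in 1536-well plates were dosed by pin tool the day after seeding, either with one drug alone or with a fixed anchor-drug dose plus five library-drug doses (not always all listed) in √10 steps. After 5 days, cells were fixed and their nuclei stained in one step (final 0.05% Triton X-100, 1% formaldehyde, 1 ug/ml Hoechst), then counted on 4× images. Relative viability is the nuclei count in treated wells divided by that in vehicle wells. Values are medians of duplicate plates.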

[1] = compound: CC(C)N(CCCNC(=O)Nc1ccc(C(C)(C)C)cc1)C[C@H]1O[C@@H](n2ccc3c(N)ncnc32)[C@H](O)[C@@H]1O + CS(=O)(=O)CCNCc1ccc(-c2ccc3ncnc(Nc4ccc(OCc5cccc(F)c5)c(Cl)c4)c3c2)o1 [Lapatinib] (partner 2 µM)
Procedure, shortened: as §1

[2] = compound: CC(C)N(CCCNC(=O)Nc1ccc(C(C)(C)C)cc1)C[C@H]1O[C@@H](n2ccc3c(N)ncnc32)[C@H](O)[C@@H]1O + NC(=O)Nc1cc(-c2cccc(F)c2)sc1C(=O)N[C@H]1CCCNC1 [AZD7762] (partner 0.2 µM)
Procedure, shortened: as §1

[3] = compound: CC(C)N(CCCNC(=O)Nc1ccc(C(C)(C)C)cc1)C[C@H]1O[C@@H](n2ccc3c(N)ncnc32)[C@H](O)[C@@H]1O + CCNC(=O)c1noc(-c2cc(C(C)C)c(O)cc2O)c1-c1ccc(CN2CCOCC2)cc1 [Luminespib] (partner 0.01 µM)
Procedure, shortened: as §1

Row | Cell Line | relative viability (Shikonin + OSI-027; first compound 0.01 µM) | relative viability (Shikonin + OSI-027; first compound 0.1 µM) | relative viability (Shikonin + OSI-027; first compound 0.3162 µM) | relative viability (Shikonin + OSI-027; first compound 1 µM) | relative viability ([1]; first compound 0.08 µM) | relative viability ([1]; first compound 0.253 µM) | relative viability ([1]; first compound 0.8 µM) | relative viability ([1]; first compound 2.53 µM) | relative viability ([1]; first compound 8 µM) | relative viability ([2]; first compound 0.08 µM) | relative viability ([2]; first compound 0.253 µM) | relative viability ([2]; first compound 2.53 µM) | relative viability ([2]; first compound 8 µM) | relative viability ([3]; first compound 0.08 µM) | relative viability ([3]; first compound 0.253 µM) | relative viability ([3]; first compound 0.8 µM) | relative viability ([3]; first compound 2.53 µM) | relative viability ([3]; first compound 8 µM) | relative viability ([2]; first compound 0.8 µM)
1 | 201T | 0.795 | 0.994 | 0.715 | 0.976 | 0.99 | 1.07 | 0.863 | 1.02 | 1.01 | 0.6 | 0.554 | 0.56 | 0.622 | 1.04 | 1.01 | 1.13 | 0.984 | 1.06 | –
2 | A549 | – | – | – | – | 0.908 | 1.01 | 1.29 | 0.93 | 1.01 | – | – | – | – | – | – | – | – | – | –
3 | A-427 | 0.503 | 0.594 | 0.514 | 0.509 | 1.01 | 0.99 | 1.05 | 1.04 | 1 | 0.79 | 0.682 | 0.699 | 0.711 | 0.889 | 0.875 | 1.03 | 0.884 | 0.817 | 0.735
4 | ABC-1 | 0.61 | 0.533 | 0.391 | 0.265 | 1.31 | 0.936 | 0.847 | 1.13 | 1.12 | 0.933 | 0.954 | 1.02 | 0.729 | 0.676 | 0.802 | – | 0.635 | 0.583 | –
5 | BEN | 0.281 | 0.311 | 0.298 | 0.324 | 0.71 | 0.67 | 0.71 | 0.628 | 0.625 | 0.736 | 0.746 | 0.598 | 0.795 | 0.347 | 0.461 | 0.282 | 0.442 | 0.303 | 0.716
6 | CAL-12T | 0.658 | 0.936 | 0.546 | 0.488 | 0.61 | 0.477 | 0.572 | 0.625 | 0.652 | 0.572 | 0.617 | 0.668 | 0.565 | 0.733 | 0.365 | 0.512 | 0.465 | 0.423 | 0.665
7 | COR-L23 | 0.854 | 0.778 | 0.732 | 0.729 | 0.955 | 0.929 | 0.888 | 1.01 | 1.04 | – | – | – | – | 0.683 | 0.757 | 0.755 | 0.739 | 0.545 | –
8 | COR-L 105 | 0.685 | 0.723 | 0.613 | 0.611 | 0.365 | 0.317 | 0.417 | 0.403 | 0.355 | – | – | – | – | 0.705 | 0.811 | 0.601 | 0.827 | 0.736 | –
9 | Calu-6 | – | – | – | – | 1.05 | 1.09 | 1.09 | 1.12 | 1.09 | – | – | – | – | – | – | – | – | – | –
10 | ChaGo-K-1 | 0.598 | 0.654 | 0.665 | 0.662 | – | – | – | – | – | 0.881 | 0.936 | 0.863 | 0.79 | 0.583 | 0.552 | 0.47 | 0.683 | 0.643 | 0.858
11 | EBC-1 | – | – | – | – | 0.206 | 0.196 | 0.212 | 0.183 | 0.206 | – | – | – | – | – | – | – | – | – | –
12 | EKVX | 0.617 | 0.668 | 0.917 | 0.734 | 0.205 | 0.202 | 0.185 | 0.206 | 0.212 | 0.7 | 0.716 | 0.767 | 0.621 | 0.758 | 0.847 | 0.838 | 0.909 | 0.846 | 0.702
13 | EMC-BAC-2 | 0.38 | 0.399 | 0.39 | 0.386 | 0.9 | 0.916 | 0.915 | 0.929 | 0.82 | 1.08 | 1.1 | 1.03 | 0.979 | 1.16 | 1.15 | 1.22 | 1.24 | 1.13 | 1.08
14 | EPLC-272H | 0.271 | 0.274 | 0.279 | 0.259 | 1.05 | 0.81 | 0.823 | 0.981 | 1.11 | 0.262 | 0.238 | 0.259 | 0.35 | 0.0863 | 0.265 | 0.268 | 0.46 | 0.232 | 0.21
15 | H3255 | 0.591 | 0.596 | 0.622 | 0.475 | 0.242 | 0.255 | 0.231 | 0.253 | 0.216 | 0.922 | 0.864 | 0.823 | 0.678 | 0.875 | 0.892 | 0.876 | 0.838 | 0.837 | 0.827
16 | HARA | 0.431 | 0.667 | 0.521 | 0.521 | 0.637 | 0.679 | 0.429 | 0.498 | 0.568 | 0.344 | 0.244 | 0.655 | 0.299 | 0.682 | 0.626 | 0.731 | 0.536 | 0.587 | 0.334
17 | HCC-78 | 0.338 | 0.377 | 0.353 | 0.401 | 0.693 | 0.809 | 0.786 | 0.431 | 0.701 | 0.613 | 0.519 | 0.576 | 0.64 | – | – | – | – | – | 0.583
